Experimental data from patent US11753407B2, “Compounds for treating spinal muscular atrophy” (PTC Therapeutics, Inc., priority 2012, dated 2023).

Assays:
[1] = system: Smn protein in SMA patient fibroblast cells (GM03813); assay: Smn protein assay in cultured cells (SMN HTRF); format: cell-based, human; details: SMA patient fibroblast cells, 48 hours; for EC1.5x for Smn protein expression: 7-point concentration curve, SMN HTRF, concentration producing 1.5 times Smn protein vs DMSO vehicle control; for maximum fold (Fold) increase of Smn protein: 7-point concentration data, fold relative to vehicle control
Summary of the method: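 SMA patient fibroblasts (5,000/well, DMEM-10% FBS) treated 48 h at 37° C with 7-point, 3.16-fold compound series in triplicate; lysates read by SMN HTRF (665/620 nm ratio). Fold Smn increase over DMSO vehicle derived; EC1.5× is concentration giving 1.5-fold Smn, with maximum fold also reported.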

[2] = system: SMN2 minigene mRNA (SMN2-A minigene) in HEK293H cells; assay: SMN2 minigene mRNA splicing RT-qPCR assay in cultured cells; format: cell-based, human; details: Homo sapiens, HEK293-H; concentration increasing full length SMN2 mRNA 1.5-fold relative to vehicle-treated cells; HEK293H cells with SMN2-A minigene, 24 hours, 7-point concentration data; read-out: EC1.5x for production of full length SMN2 mRNA
Summary of the method: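 HEK293H cells stably carrying SMN2-A minigene treated with compounds (7-point, 3.16-fold dilutions, duplicates) for 24 h at 37 °C. Full-length exon 7-containing minigene mRNA measured by multiplex RT-qPCR with GAPDH, normalized and expressed relative to vehicle (modified ΔΔCt); EC1.5× is concentration giving 1.5-fold increase.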

| melting point | SMILES | EC1.5x for Smn protein expression [1] | maximum fold (Fold) increase of Smn protein [1] | EC (1.5-fold increase) [2] |
| --- | --- | --- | --- | --- |
| 176 to 181 °C | COc1ccc(-c2cc(=O)n3cc(C4CCNCC4)cc(C)c3n2)cc1OC [Compound 250, 2-(3,4-dimethoxyphenyl)-9-methyl-7-(piperidin-4-yl)-4H-pyrido[1,2-a]pyrimidin-4-one] | **** (an EC1.5x≤0.3 μM is indicated by four stars (****)) | ***** (a fold increase >1.65 is indicated by five stars (*****)) | < 0.1 µM |
| 170 to 174 °C | COc1ccc(-c2cc(=O)n3cc(C4CCN(C)CC4)cc(C)c3n2)cc1OC [Compound 252, 2-(3,4-dimethoxyphenyl)-9-methyl-7-(1-methylpiperidin-4-yl)-4H-pyrido[1,2-a]pyrimidin-4-one] | *** (an EC1.5× between >0.3 μM and ≤1 μM is indicated by three stars (***)) | **** (a fold increase between >1.5 and ≤1.65 is indicated by four stars (****)) | 0.1 to 0.3 µM |
| 205 to 207 °C | Cc1nc2ccc(-c3cc(=O)n4cc(N5CCCNCC5)ccc4n3)cc2s1 [Compound 253, 7-(1,4-diazepan-1-yl)-2-(2-methyl-1,3-benzothiazol-6-yl)-4H-pyrido[1,2-a]pyrimidin-4-one] | – | * (A maximum fold increase of ≤1.2 is indicated by one star (*)) | 1 to 3 µM |
| 158 to 160 °C | Cc1nc2ccc(-c3cc(=O)n4cc(N5CCCN(C)CC5)ccc4n3)cc2s1 [Compound 254, 2-(2-methyl-1,3-benzothiazol-6-yl)-7-(4-methyl-1,4-diazepan-1-yl)-4H-pyrido[1,2-a]pyrimidin-4-one] | ** (an EC1.5× between >1 μM and ≤3 μM is indicated by two stars (**)) | *** (a fold increase between >1.35 and ≤1.5 is indicated by three stars (***)) | 0.1 to 0.3 µM |
| 250 to 260 °C | Cc1nc2ccc(-c3cc(=O)n4cc(N5CCN6CCC[C@H]6C5)ccc4n3)cc2s1 [Compound 255, 7-[(8aS)-hexahydropyrrolo[1,2-a]pyrazin-2(1H)-yl]-2-(2-methyl-1,3-benzothiazol-6-yl)-4H-pyrido[1,2-a]pyrimidin-4-one] | – | ** (a fold increase between >1.2 and ≤1.35 is indicated by two stars (**)) | 0.3 to 1 µM |
| 230 to 234 °C | Cc1nc2ccc(-c3cc(=O)n4cc(N5CCN(C)CC5)ccc4n3)cc2s1 [Compound 256, 2-(2-methyl-1,3-benzothiazol-6-yl)-7-(4-methylpiperazin-1-yl)-4H-pyrido[1,2-a]pyrimidin-4-one] | ** (an EC1.5× between >1 μM and ≤3 μM is indicated by two stars (**)) | **** (a fold increase between >1.5 and ≤1.65 is indicated by four stars (****)) | 0.3 to 1 µM |
| 215 °C | COc1ccc(-c2cc(=O)n3cc(N4C[C@H]5CNC[C@H]5C4)cc(C)c3n2)cc1OC [Compound 257, 2-(3,4-dimethoxyphenyl)-7-[(3aR,6aS)-hexahydropyrrolo[3,4-c]pyrrol-2(1H)-yl]-9-methyl-4H-pyrido[1,2-a]pyrimidin-4-one] | ** (an EC1.5× between >1 μM and ≤3 μM is indicated by two stars (**)) | **** (a fold increase between >1.5 and ≤1.65 is indicated by four stars (****)) | < 0.1 µM |
| 220 to 223 °C | Cc1cn2nc(-c3cc(=O)n4cc(N5CCN(C)[C@@H](C)C5)ccc4n3)cc2c(C)n1 [Compound 258, 7-[(3S)-3,4-dimethylpiperazin-1-yl]-2-(4,6-dimethylpyrazolo[1,5-a]pyrazin-2-yl)-4H-pyrido[1,2-a]pyrimidin-4-one] | *** (an EC1.5× between >0.3 μM and ≤1 μM is indicated by three stars (***)) | **** (a fold increase between >1.5 and ≤1.65 is indicated by four stars (****)) | < 0.1 µM |
| 254 to 260 °C | Cc1cn2nc(-c3cc(=O)n4cc(N5C[C@@H](C)N(C)[C@@H](C)C5)ccc4n3)cc2c(C)n1 [Compound 259, 2-(4,6-dimethylpyrazolo[1,5-a]pyrazin-2-yl)-7-[(3R,5S)-3,4,5-trimethylpiperazin-1-yl]-4H-pyrido[1,2-a]pyrimidin-4-one] | *** (an EC1.5× between >0.3 μM and ≤1 μM is indicated by three stars (***)) | **** (a fold increase between >1.5 and ≤1.65 is indicated by four stars (****)) | < 0.1 µM |
| 212 to 218 °C | COc1ccc(-c2cc(=O)n3cc(N4C[C@H]5CN(C)C[C@H]5C4)cc(C)c3n2)cc1OC [Compound 260, 2-(3,4-dimethoxyphenyl)-9-methyl-7-[(3aR,6aS)-5-methylhexahydropyrrolo[3,4-c]pyrrol-2(1H)-yl]-4H-pyrido[1,2-a]pyrimidin-4-one] | ** (an EC1.5× between >1 μM and ≤3 μM is indicated by two stars (**)) | *** (a fold increase between >1.35 and ≤1.5 is indicated by three stars (***)) | 0.1 to 0.3 µM |
| 167 to 171 °C | COc1ccc(-c2cc(=O)n3cc(N4CCC(N(C)C)CC4)cc(C)c3n2)cc1OC [Compound 261, 2-(3,4-dimethoxyphenyl)-7-[4-(dimethylamino)piperidin-1-yl]-9-methyl-4H-pyrido[1,2-a]pyrimidin-4-one] | **** (an EC1.5x≤0.3 μM is indicated by four stars (****)) | **** (a fold increase between >1.5 and ≤1.65 is indicated by four stars (****)) | < 0.1 µM |
| 203 to 207 °C | Cc1nc2ccc(-c3cc(=O)n4cc(N5CC[C@@H](N(C)C)C5)ccc4n3)cc2o1 [Compound 264, 7-[(3R)-3-(dimethylamino)pyrrolidin-1-yl]-2-(2-methyl-1,3-benzoxazol-6-yl)-4H-pyrido[1,2-a]pyrimidin-4-one] | **** (an EC1.5x≤0.3 μM is indicated by four stars (****)) | ***** (a fold increase >1.65 is indicated by five stars (*****)) | < 0.1 µM |
| 170 to 175 °C | CCc1nc2ccc(-c3cc(=O)n4cc(N5CCNCC5)ccc4n3)cc2o1 [Compound 265, 2-(2-ethyl-1,3-benzoxazol-6-yl)-7-(piperazin-1-yl)-4H-pyrido[1,2-a]pyrimidin-4-one] | – | *** (a fold increase between >1.35 and ≤1.5 is indicated by three stars (***)) | 1 to 3 µM |
| 168 to 170 °C | CCc1nc2ccc(-c3cc(=O)n4cc(N5CCN[C@@H](C)C5)ccc4n3)cc2o1 [Compound 266, 2-(2-ethyl-1,3-benzoxazol-6-yl)-7-[(3S)-3-methylpiperazin-1-yl]-4H-pyrido[1,2-a]pyrimidin-4-one] | – | ** (a fold increase between >1.2 and ≤1.35 is indicated by two stars (**)) | 1 to 3 µM |
| 200 to 204 °C | Cc1nc2ccc(-c3cc(=O)n4cc(N5C[C@H]6CN(C)C[C@H]6C5)ccc4n3)cc2o1 [Compound 267, 2-(2-methyl-1,3-benzoxazol-6-yl)-7-[(3aR,6aS)-5-methylhexahydropyrrolo[3,4-c]pyrrol-2(1H)-yl]-4H-pyrido[1,2-a]pyrimidin-4-one] | **** (an EC1.5x≤0.3 μM is indicated by four stars (****)) | ***** (a fold increase >1.65 is indicated by five stars (*****)) | < 0.1 µM |
| 308 °C (dec.) | Cc1cn2cc(-c3ccc4nc(N5CCNCC5)cc(=O)n4c3)cc(F)c2n1 [Compound 268, 7-(8-fluoro-2-methylimidazo[1,2-a]pyridin-6-yl)-2-(piperazin-1-yl)-4H-pyrido[1,2-a]pyrimidin-4-one] | **** (an EC1.5x≤0.3 μM is indicated by four stars (****)) | ***** (a fold increase >1.65 is indicated by five stars (*****)) | < 0.1 µM |

| SMILES | melting point | EC1.5x for Smn protein expression [1] | maximum fold (Fold) increase of Smn protein [1] | EC (1.5-fold increase) [2] |
| --- | --- | --- | --- | --- |
| COc1ccc(-c2cc(=O)n3cc(C4=CCN(C)CC4)cc(C)c3n2)cc1OC [Compound 251, 2-(3,4-dimethoxyphenyl)-9-methyl-7-(1-methyl-1,2,3,6-tetrahydropyridin-4-yl)-4H-pyrido[1,2-a]pyrimidin-4-one] | 187 to 196 °C | **** (an EC1.5x≤0.3 μM is indicated by four stars (****)) | ***** (a fold increase >1.65 is indicated by five stars (*****)) | < 0.1 µM |
| COc1ccc(-c2cc(=O)n3cc(C4=C[C@H]5CC[C@@H](C4)N5)ccc3n2)cc1OC [Compound 262, 7-[(1R,5S)-8-azabicyclo[3.2.1]oct-2-en-3-yl]-2-(3,4-dimethoxyphenyl)-4H-pyrido[1,2-a]pyrimidin-4-one] | 191 to 194 °C | *** (an EC1.5× between >0.3 μM and ≤1 μM is indicated by three stars (***)) | ***** (a fold increase >1.65 is indicated by five stars (*****)) | 0.1 to 0.3 µM |
